According to US20210355107A1, “MULTI-SUBSTITUTED PYRIDONE DERIVATIVES AND MEDICAL USE THEREOF” (Beijing Yuezhikangtai Biomedicines Co., Ltd., priority 2018, published 2021):

What was measured:
[1] = system: human non-small cell lung cancer tumor cell strain EBC-1; assay: In vivo anti-tumor activity in model mice with ectopically grafted EBC-1 tumor cells; settings: EBC-1 subcutaneous tumors in BALB/c-nude mice; 30 mg/kg intragastric once daily for 28 days; FIG. 1
Description: (§1) Test Example 5: In Vivo Anti-Tumor Activity of Compounds disclosed herein in Model Mice with Ectopically Grafted Tumor Cells
(§2) 3×10^6 cells of human non-small cell lung cancer tumor cell strain EBC-1 (ATCC) were inoculated subcutaneously into BALB/c-nude model mice (Beijing AniKeeper Biotech, 10 female mice). When the subcutaneous tumors in mice each grew to 175.5 mm^3, the mice were administered intragastrically with test samples.
The mice were divided into a negative control group and an example compound group (compound of Example 3) (30 mg/kg) with 5 mice per group. The mice in the negative control group were administered with 10% solutol HS-15, which was prepared by adding 10 mL of solutol HS-15 to 90 mL of ddH2O and then mixing well by vortexing. […]
After the start of the administration, the body weight and tumor size of each mice were measured twice a week. […]
The anti-tumor efficacy was evaluated based on the growth curve of the tumor (i.e., tumor volume per measurement versus its treatment days) and relative tumor volume during treatment. The relative tumor inhibition (TGI) was calculated according to the following formula: […]
Relative tumor volume RTV was calculated as follows: RTV=[…], where V0 is the tumor volume of the animal at the time of grouping, and Vt is the tumor volume of the animal after treatment.

[2] = Body weight of EBC-1 tumor-bearing mice during treatment; assay type: in vivo; settings: EBC-1 BALB/c-nude mice; 30 mg/kg intragastric once daily for 28 days; FIG. 2
Description: as §1, §2
The mice were divided into a negative control group and an example compound group (compound of Example 3) (30 mg/kg) with 5 mice per group. The mice in the negative control group were administered with 10% solutol HS-15, which was prepared by adding 10 mL of solutol HS-15 to 90 mL of ddH2O and then mixing well by vortexing. The mice in the example compound group were administered with a compound solution at a concentration of […] which was prepared by dissolving the compound of Example 3 in 10% solutol HS-15. The mice in both the solvent control group and the example compound group were subjected to intragastric administration once daily for 28 days at a dosage of 10 μL per gram of body weight.
After the start of the administration, the body weight and tumor size of each mice were measured twice a week. The calculation formula for tumor size is as follows: […]

CCn1cc(-c2cnc(N)c(-c3ccc(NC(=O)c4cn(C(C)C)c(C#N)c(-c5ccc(F)cc5)c4=O)cc3F)c2)cn1 [Example 3, N-(4-(2-amino-5-(1-ethyl-1H-pyrazol-4-yl)pyridin-3-yl)-3-fluoro-phenyl)-6-cyano-5-(4-fluorophenyl)-1-isopropyl-4-oxo-1,4-dihydropyridine-3-carboxamide]
tumor growth inhibition (TGI) [1]: up to 108%
body weight change of tumor-bearing mice [2]: does not change significantly
